From patent US20220356186A1, “PERK INHIBITING PYRROLOPYRIMIDINE COMPOUNDS” (HiberCell, Inc., priority 2019, published 2022)
Where two headings read alike, the source gives them in different places.

What was measured:
[1] = biological target: T1, EIF2AK3 (PERK) catalytic domain (amino acids 536-1116) (Homo sapiens, UniProt Q9NZJ5); experiment: PERK in vitro activity assay (isolated), TR-FRET kinase assay; type: biochemical; details: isolated PERK enzyme, 1.5 μM ATP; read-out: Biochemical IC50
T1 construct: EIF2AK3 (PERK) catalytic domain (amino acids 536-1116)
T1 sequence (Q9NZJ5 536-1116): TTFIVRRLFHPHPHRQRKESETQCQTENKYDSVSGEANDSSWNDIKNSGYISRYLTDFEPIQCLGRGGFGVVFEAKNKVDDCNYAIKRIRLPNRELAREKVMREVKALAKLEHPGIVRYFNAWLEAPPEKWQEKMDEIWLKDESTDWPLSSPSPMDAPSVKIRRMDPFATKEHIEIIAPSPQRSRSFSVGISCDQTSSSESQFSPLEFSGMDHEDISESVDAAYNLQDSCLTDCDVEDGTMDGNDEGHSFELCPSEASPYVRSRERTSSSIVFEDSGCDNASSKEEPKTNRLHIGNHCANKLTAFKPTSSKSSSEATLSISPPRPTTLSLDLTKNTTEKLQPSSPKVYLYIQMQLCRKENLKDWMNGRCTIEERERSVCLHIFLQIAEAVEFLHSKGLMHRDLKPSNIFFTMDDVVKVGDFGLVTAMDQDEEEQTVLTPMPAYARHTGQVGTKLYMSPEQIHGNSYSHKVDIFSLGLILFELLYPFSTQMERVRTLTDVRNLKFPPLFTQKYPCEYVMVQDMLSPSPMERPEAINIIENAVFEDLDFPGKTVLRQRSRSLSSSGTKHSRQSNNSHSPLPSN
How it was run: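 Human PERK catalytic domain (aa 536-1116) phosphorylating 100-200 nM GFP-eIF2a in 50 mM HEPES pH 7.5, 10 mM MgCl2, 1 mM EGTA, 0.01% Brij-35; enzyme-started, 45 min at room temperature. Stopped with 10 mM EDTA, 2 nM Tb-anti-phospho-eIF2a added for 90 min; IC50 from TR-FRET ratios by 4-parameter logistic fit.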

[2] = test system: GFP-eIF2α in HEK293 cells; experiment: PERK cellular assay, TR-FRET in HEK293-EGFP-eIF2a cells after tunicamycin-induced ER stress; type: cell-based; details: HEK293-EGFP-eIF2a cells, tunicamycin 2 hours, read-out: Cellular eIF2α IC50
How it was run: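 HEK293 cells stably expressing GFP-eIF2α, plated 5000 cells/well overnight, pretreated with inhibitors 30 min at 37 °C, then ER stress induced with tunicamycin […] for 2 h.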

Row | Compound | IC50 [1] [nM] | IC50 [2] [nM] | IC50 ([2]; Homo sapiens, HEK293, 2 h) [nM] | IC50 ([2]; Homo sapiens) [nM]
1 | Cc1nc(N)c2c(-c3ccc(NC(=O)C(O)c4cc(F)cc(C(F)(F)F)c4)cc3C)cn(C)c2n1 (single isomer, unassigned) [Example 54, N-(4-(4-amino-2,7-dimethyl-7H-pyrrolo[2,3-d]pyrimidin-5-yl)-3-methylphenyl)-2-(3-fluoro-5-(trifluorophenyl)phenyl)-2-hydroxyacetamide] | 1 to 25 | 26 to 50 |  | 
2 | Cc1cc(NC(=O)Cc2ccccc2Cl)ccc1-c1cn(C)c2ncnc(N)c12 [Example 149, N-(4-(4-amino-7-methyl-7H-pyrrolo[2,3-d]pyrimidin-5-yl)-3-methylphenyl)-2-(2-chlorophenyl)acetamide] | 1 to 25 |  | 26 to 50 | 
3 | CCc1cc(F)cc(C(O)C(=O)Nc2ccc(-c3cn(C)c4nc(C)nc(N)c34)c(C)c2)c1 (centres unmarked) [Example 58, N-(4-(4-amino-2,7-dimethyl-7H-pyrrolo[2,3-d]pyrimidin-5-yl)-3-methylphenyl)-2-(3-ethyl-5-fluorophenyl)-2-hydroxyacetamide] | 1 to 25 | 51 to 100 |  | 
4 | Cc1nc(N)c2c(-c3ccc(NC(=O)C(O)c4cccc(C(F)(F)F)n4)cc3C)cn(C)c2n1 (centres unmarked) [Example 62, N-(4-(4-amino-2,7-dimethyl-7H-pyrrolo[2,3-d]pyrimidin-5-yl)-3-methylphenyl)-2-hydroxy-2-(6-(trifluoromethyl)pyridin-2-yl)acetamide] | 51 to 100 | 2000 to 3000 |  | 
5 | Cc1cc(NC(=O)CC2CCCCC2)ccc1-c1cn(C)c2ncnc(N)c12 [Example 166, N-(4-(4-amino-7-methyl-7H-pyrrolo[2,3-d]pyrimidin-5-yl)-3-methylphenyl)-2-cyclohexyl-acetamide] | 1 to 25 |  | 101 to 250 | 
6 | Cc1cc(NC(=O)Oc2ccccc2)ccc1-c1cn(C)c2ncnc(N)c12 [Example 169, phenyl (4-(4-amino-7-methyl-7H-pyrrolo[2,3-d]pyrimidin-5-yl)-3-methylphenyl)carbamate] | 3000 to 4000 |  |  | > 5000
7 | Cc1cc(F)cc(C(O)C(=O)Nc2ccc(-c3cn(C)c4nc(C)nc(N)c34)c(C)c2)c1 (centres unmarked) [Example 56, N-(4-(4-amino-2,7-dimethyl-7H-pyrrolo[2,3-d]pyrimidin-5-yl)-3-methylphenyl)-2-(3-fluoro-5-methylphenyl)-2-hydroxyacetamide] | 1 to 25 | 1 to 25 |  | 
8 | Cc1nc(N)c2c(-c3cnc(NC(=O)C(O)c4cccc(C(F)(F)F)c4)cc3C)cn(C)c2n1 (centres unmarked) [Example 132, N-(5-(4-amino-2,7-dimethyl-7H-pyrrolo[2,3-d]pyrimidin-5-yl)-4-methylpyriidn-2-yl)-2-hydroxy-2-(3-(trifluoromethyl)phenyl)acetamide] | 1 to 25 | 51 to 100 |  | 
9 | Cn1cc(-c2ccc(NC(=O)C(O)c3cccc(F)c3)cc2Cl)c2c(N)ncnc21 (centres unmarked) [Example 14, N-(4-(4-amino-7-methyl-7H-pyrrolo[2,3-d]pyrimidin-5-yl)-3-chlorophenyl)-2-(3-fluorophenyl)-2-hydroxyacetamide] | 1 to 25 | 1 to 25 |  | 
10 | Cc1nc(N)c2c(-c3ccc(NC(=O)C(O)c4cccc(F)c4)cc3)cn(C)c2n1 (centres unmarked) [Example 24, N-(4-(4-amino-2,7-dimethyl-7H-pyrrolo[2,3-d]pyrimidin-5-yl)phenyl)-2-(3-fluorophenyl)-2-hydroxyacetamide] | 26 to 50 | 1000 to 2000 |  | 
11 | Cc1cc(NC(=O)CC2CCCC2)ccc1-c1cn(C)c2ncnc(N)c12 [Example 165, N-(4-(4-amino-7-methyl-7H-pyrrolo[2,3-d]pyrimidin-5-yl)-3-methylphenyl)-2-cyclopentyl-acetamide] | 101 to 250 |  | 501 to 1000 | 
12 | Cc1c(-c2cn(C)c3ncnc(N)c23)ccc(NC(=O)C(O)c2cccc(F)c2)c1F (centres unmarked) [Example 117, N-(4-(4-amino-7-methyl-7H-pyrrolo[2,3-d]pyrimidin-5-yl)-2-fluoro-3-methylphenyl)-2-(3-fluorophenyl)-2-hydroxyacetamide] | 1 to 25 | 1 to 25 |  | 
13 | Cc1cc(NC(=O)Cc2ccccc2)ccc1-c1cn(C)c2ncnc(N)c12 [Example 137, N-(4-(4-amino-7-methyl-7H-pyrrolo[2,3-d]pyrimidin-5-yl)-3-methylphenyl)-2-phenylacetamide] | 1 to 25 |  | 26 to 50 | 
14 | Cc1nc(N)c2c(-c3ccc(NC(=O)C(O)c4cccc(C(F)(F)F)c4)cc3C)cn(C)c2n1 (centres unmarked) [Example 50, N-(4-(4-amino-2,7-dimethyl-7H-pyrrolo[2,3-d]pyrimidin-5-yl)-3-methylphenyl)-2-hydroxy-2-(3-(trifluoromethyl)phenyl)acetamide] | 1 to 25 | 1 to 25 |  | 
15 | COc1ccc(CC(=O)Nc2ccc(-c3cn(C)c4ncnc(N)c34)c(C)c2)cc1 [Example 141, N-(4-(4-amino-7-methyl-7H-pyrrolo[2,3-d]pyrimidin-5-yl)-3-methylphenyl)-2-(4-methoxyphenyl)acetamide] | 51 to 100 |  | 251 to 500 | 
16 | Cc1nc(N)c2c(-c3ccc(NC(=O)C(O)c4cccc(C(F)(F)F)c4)cc3Cl)cn(C)c2n1 (centres unmarked) [Example 101, N-(4-(4-amino-2,7-dimethyl-7H-pyrrolo[2,3-d]pyrimidin-5-yl)-3-chlorophenyl)-2-hydroxy-2-(3-(trifluoromethyl)phenyl)acetamide] | 1 to 25 | 1 to 25 |  | 
17 | Cc1cccc(C(O)C(=O)Nc2ccc(-c3cn(C)c4nc(C)nc(N)c34)c(Cl)c2)c1 (centres unmarked) [Example 96, N-(4-(4-amino-2,7-dimethyl-7H-pyrrolo[2,3-d]pyrimidin-5-yl)-3-chlorophenyl)-2-hydroxy-2-(m-tolyl)acetamide] | 1 to 25 | 1 to 25 |  | 
18 | Cc1nc(N)c2c(-c3ccc(NC(=O)C(O)c4cccc(C(F)(F)F)c4)nc3C)cn(C)c2n1 (centres unmarked) [Example 130, N-(5-(4-amino-2,7-dimethyl-7H-pyrrolo[2,3-d]pyrimidin-5-yl)-6-methylpyridin-2-yl)-2-hydroxy-2-(3-(trifluoromethyl)phenyl)acetamide] | 101 to 250 | 1000 to 2000 |  | 
19 | Cc1nc(N)c2c(-c3ccc(NC(=O)C(O)c4cccc(F)c4)nc3C)cn(C)c2n1 (centres unmarked) [Example 127, N-(5-(4-amino-2,7-dimethyl-7H-pyrrolo[2,3-d]pyrimidin-5-yl)-6-methylpyridin-2-yl)-2-(3-fluorophenyl)-2-hydroxyacetamide] | 1 to 25 | 101 to 250 |  | 
20 | Cc1cc(F)cc(C(O)C(=O)Nc2ccc(-c3cn(C)c4nc(C)nc(N)c34)c(F)c2)c1 (centres unmarked) [Example 85, N-(4-(4-amino-2,7-dimethyl-7H-pyrrolo[2,3-d]pyrimidin-5-yl)-3-fluorophenyl)-2-(3-fluoro-5-methylphenyl)-2-hydroxyacetamide] | 1 to 25 | 1 to 25 |  | 
21 | Cc1nc(N)c2c(-c3cnc(NC(=O)C(O)c4cccc(F)c4)cc3C)cn(C)c2n1 (centres unmarked) [Example 133, N-(5-(4-amino-2,7-dimethyl-7H-pyrrolo[2,3-d]pyrimidin-5-yl)-4-methylpyridin-2-yl)-2-(3-fluorophenyl)-2-hydroxyacetamide] | 251 to 500 | 4000 to 5000 |  | 
22 | Cc1cc(NC(=O)C(O)c2cccc(F)c2)c(F)cc1-c1cn(C)c2ncnc(N)c12 (centres unmarked) [Example 119, N-(4-(4-amino-7-methyl-7H-pyrrolo[2,3-d]pyrimidin-5-yl)-2-fluoro-5-methylphenyl)-2-(3-fluorophenyl)-2-hydroxyacetamide] | 1 to 25 | 1 to 25 |  | 
23 | CCc1cccc(C(O)C(=O)Nc2ccc(-c3cn(C)c4nc(C)nc(N)c34)c(F)c2)c1 (centres unmarked) [Example 76, N-(4-(4-amino-2,7-dimethyl-7H-pyrrolo[2,3-d]pyrimidin-5-yl)-3-fluorophenyl)-2-(3-ethylphenyl)-2-hydroxyacetamide] | 1 to 25 | 1 to 25 |  | 
24 | Cc1nc(N)c2c(-c3ccc(NC(=O)C(O)c4cc(F)cc(C(F)(F)F)c4)cc3C)cn(C)c2n1 (single isomer, unassigned) [Example 55, N-(4-(4-amino-2,7-dimethyl-7H-pyrrolo[2,3-d]pyrimidin-5-yl)-3-methylphenyl)-2-(3-fluoro-5-(trifluoromethyl)phenyl)-2-hydroxyacetamide] | 101 to 250 | 251 to 500 |  | 
25 | Cc1nc(N)c2c(-c3cc(F)c(NC(=O)C(O)c4cccc(F)c4)cc3C)cn(C)c2n1 (single isomer, unassigned) [Example 122, N-(4-(4-amino-2,7-dimethyl-7H-pyrrolo[2,3-d]pyrimidin-5-yl)-2-fluoro-5-methylphenyl)-2-(3-fluorophenyl)-2-hydroxyacetamide] | 101 to 250 | 1000 to 2000 |  | 
